For the assay, the target named is T1, cystic fibrosis transmembrane conductance regulator (CFTR), wt (Homo sapiens, UniProt P13569).
T1 construct: wt-CFTR stably expressed in BHK cells
The experiment in a line: automated whole-cell patch clamp, acute potentiation of current activated by […] Fsk on addition of […] compound. It is filed as cell-based. Background: In patch-clamp work, channel activity is measured electrically.

Molecules are shown by their SMILES.

T1 sequence (P13569 whole entry): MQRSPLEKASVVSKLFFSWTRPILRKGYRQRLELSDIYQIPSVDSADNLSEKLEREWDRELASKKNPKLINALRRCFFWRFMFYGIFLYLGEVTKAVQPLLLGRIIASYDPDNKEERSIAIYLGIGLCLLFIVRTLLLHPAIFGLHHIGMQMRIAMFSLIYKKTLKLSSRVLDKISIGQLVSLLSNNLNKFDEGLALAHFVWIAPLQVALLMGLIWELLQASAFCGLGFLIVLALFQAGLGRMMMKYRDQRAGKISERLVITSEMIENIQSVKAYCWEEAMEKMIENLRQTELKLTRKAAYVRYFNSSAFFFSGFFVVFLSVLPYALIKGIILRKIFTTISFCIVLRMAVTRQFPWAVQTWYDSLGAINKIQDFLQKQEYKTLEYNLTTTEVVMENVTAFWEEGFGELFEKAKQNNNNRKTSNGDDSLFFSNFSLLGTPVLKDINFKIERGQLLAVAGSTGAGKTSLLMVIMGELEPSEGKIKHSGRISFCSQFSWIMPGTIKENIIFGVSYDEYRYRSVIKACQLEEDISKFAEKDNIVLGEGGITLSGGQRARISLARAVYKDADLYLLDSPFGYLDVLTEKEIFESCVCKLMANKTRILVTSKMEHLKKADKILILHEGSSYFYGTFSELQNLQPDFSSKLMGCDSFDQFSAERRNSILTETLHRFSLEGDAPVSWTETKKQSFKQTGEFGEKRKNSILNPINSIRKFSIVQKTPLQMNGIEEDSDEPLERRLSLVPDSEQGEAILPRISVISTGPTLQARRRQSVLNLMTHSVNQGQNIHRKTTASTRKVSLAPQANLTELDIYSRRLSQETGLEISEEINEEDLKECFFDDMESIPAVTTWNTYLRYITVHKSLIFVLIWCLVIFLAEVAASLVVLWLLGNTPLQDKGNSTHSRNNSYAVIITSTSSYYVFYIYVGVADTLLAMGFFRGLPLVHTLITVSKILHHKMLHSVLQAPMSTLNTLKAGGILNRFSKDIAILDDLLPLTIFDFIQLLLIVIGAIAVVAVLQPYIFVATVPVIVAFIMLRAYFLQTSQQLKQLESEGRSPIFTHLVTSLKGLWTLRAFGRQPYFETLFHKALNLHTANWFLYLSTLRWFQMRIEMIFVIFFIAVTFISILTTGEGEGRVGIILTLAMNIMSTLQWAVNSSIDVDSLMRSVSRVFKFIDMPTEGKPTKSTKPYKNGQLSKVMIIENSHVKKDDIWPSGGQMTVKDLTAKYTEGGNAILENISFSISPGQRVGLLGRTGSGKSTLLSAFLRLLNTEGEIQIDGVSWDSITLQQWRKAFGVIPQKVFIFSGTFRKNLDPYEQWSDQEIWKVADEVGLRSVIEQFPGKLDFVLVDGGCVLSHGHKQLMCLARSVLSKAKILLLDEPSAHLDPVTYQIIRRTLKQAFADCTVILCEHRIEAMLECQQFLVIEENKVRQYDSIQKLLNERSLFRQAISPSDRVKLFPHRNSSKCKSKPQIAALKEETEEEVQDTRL

On to `CC(C)(C)c1cc(C(C)(C)C)c(NC(=O)c2c[nH]c3ccccc3c2=O)cc1O` [VX770], for which the “automated whole-cell patch clamp, acute potentiation of current activated by 1 μ” value was “clearly demonstrate potentiation of the Fsk-activated current by the potentiator VX770”.

Values taken from publication PMC5383655, “Development of Automated Patch Clamp Technique to Investigate CFTR Chloride Channel Function” (Frontiers in Pharmacology, 2017).
